From publication PMC10388311, “Innovative Strategy toward Mutant CFTR Rescue in Cystic Fibrosis: Design and Synthesis of Thiadiazole Inhibitors of the E3 Ligase RNF5” (Journal of Medicinal Chemistry, 2023)
“Also recorded” adds a separate entry of the source.

How the values were obtained:
CFBE41o– cells = assay: Apoptosis assay (Hoechst 33342 / propidium iodide, high-content imaging); type: cell-based, human
Procedure: We performed a preliminary evaluation of the effect of chronic treatment with selected analogues on the proliferation and apoptosis of CFBE41o^– cells (Figure 7). Indeed, RNF5 can modulate cell motility and proliferation by regulating paxillin ubiquitylation and thus its degradation.[53] For the proliferation assay, CFBE41o^– cells stably co-expressing F508del-CFTR and the HS-YFP were treated with test compounds (5 μM), VX-809 (1 μM), or vehicle alone (DMSO) for 48 h. Cell proliferation was then monitored by measuring the area covered by the cells based on the YFP signal. For the apoptosis assay, 24 h after plating, CFBE41o^– cells stably expressing F508del-CFTR were treated with test compounds (5, 20, and 100 μM), VX-809 (1 μM), MG132 (50 μM), or vehicle alone (DMSO) for 24 h. Cell nuclei were then counterstained with Hoechst 33342 and propidium iodide to visualize the total and apoptotic cell count, respectively, and imaged by using an Opera Phenix high-content screening system.
CFBE41o^– cells stably expressing F508del-CFTR and the HS-YFP were plated at a low density (5000 cell/well) on 96-well plates suitable for high-content imaging. […] Cell proliferation was monitored (by exploiting the YFP signal to determine the area covered by cells) for 48 h using the Opera Phenix (PerkinElmer) high-content screening system. […] Data are expressed as means ± SEM, n = 6. […]

[1] = test system: ATG4B-mediated basal autophagy in F508del-CFTR-expressing CFBE41o– cells; assay: Labeling of autophagic vacuoles with monodansylcadaverine (MDC); type: cell-based, human; settings: test compounds 5 μM 24 h; torin-1 20 nM and SAR-405 2 μM in the last 3 h
From the text: To further support our hypothesis that CFTR rescue following treatment with test compounds was indeed due to RNF5 inhibition, we considered additional biological processes known to be regulated by RNF5 ligase activity. To this aim, we focused our attention on ATG4B, a known regulator of basal autophagy, whose degradation is mediated by RNF5 activity.[54]In vivo ubiquitination experiments previously confirmed that inh-2 inhibits ATG4B degradation, thus increasing the basal level of autophagy.[40] […] We thus evaluated the effect of inh-2 analogues on induction of the autophagy pathway. To this aim, we monitored the formation of autophagic vacuoles in F508del-CFTR-expressing CFBE41o^– cells (Figure 8) by using the autolysosome marker monodansylcadaverine (MDC). MDC accumulates inside autophagosomes. After fusion of autophagosomes with lysosomes, MDC fluorescence increases due to the acidic environment.[55] Therefore, F508del-CFTR-expressing CFBE41o^– cells were treated for 24 h with test compounds (5 μM), VX-809 (1 μM), or DMSO alone (vehicle). In the last 3 h of incubation, we added torin-1 (20 nM), a known autophagy inducer, and SAR-405 (2 μM), a potent inhibitor of the autophagic pathway. The cells were then loaded with MDC and evaluated by high-content confocal imaging to detect signal spots (corresponding to autophagic vacuoles) in each cell.
CFBE41o^– cells stably expressing F508del-CFTR and the HS-YFP were plated (50,000 cells/well) on good-quality clear-bottom 96-well black microplates suitable for high-content imaging. After 24 h, cells were treated with test compounds or DMSO (as the negative control). […] After 24 h, cells were incubated with 50 μM MDC (Sigma-Aldrich) in PBS at 37 °C for 10 min.[62] After incubation, cells were washed three times with PBS and immediately analyzed. High-content imaging and data analysis were performed using the Opera Phenix (PerkinElmer) high-content screening system. Wells were imaged in confocal mode using a 40× water-immersion objective. The MDC signal was laser-excited at 405 nm, and the emission wavelengths were collected between 435 and 550 nm. Data analysis of MDC spot number was performed using the Harmony software (ver 4.5) of the Opera Phenix high-content system. Data are expressed as means ± SEM, n = 3 independent experiments. Statistical significance was tested by parametric ANOVA followed by the Dunnet multiple comparisons test (all groups against the control group).

COc1cccc(Cn2c(C)ns/c2=N\C(=N\c2ccccc2)c2ccccc2)c1 [Compound 16, (E)-N-((Z)-4-(3-Methoxybenzyl)-3-methyl-1,2,4-thiadiazol-5(4H)-ylidene)-N′-phenylbenzimidamide]
effect on cell proliferation and apoptosis (tolerability) (CFBE41o– cells): good tolerability and no toxic side effects | number of autophagic vacuoles (MDC signal spots) [1]: significantly increased; also recorded: strong activation of basal autophagy

Cc1ns/c(=N\C(=N\c2ccccc2)c2ccccc2)n1Cc1ccccc1 [inh-2, reference compound]
number of autophagic vacuoles (MDC signal spots) [1]: significantly increased
